The subject of test [1] is TPA-induced inflammation in the mouse ear. The test is described as follows: Topical anti-inflammatory activity: TPA-induced inflammation (edema) in the mouse ear. In kind it is in vivo, mouse (male CD-1). The settings on record: for inhibition in vivo at 100 µg/ear: Mus musculus, @ 100 μg, 5-6 h after TPA; for Inhibition of ear edema, IC50: multiple-dose experiment, dose for 50% inhibition of weight gain. As to the method: The topical anti-inflammatory activity of the compounds is determined by measuring the degree of inhibition of TPA-induced inflammation in the mouse ear, using essentially the procedure of C. Van Arman, Clin. Pharmacol. Ther., 16, 900 (1974). Male CD-1 mice are used at seven to nine weeks of age. 12-O-tetradecanoylphorbol acetate ([…] in 20 μl of acetone) is dispensed onto the dorsum of the left ear of each mouse, and the right ear is left untreated. Ten mice so treated serve as the control group. […]
After five to six hours, the animals are sacrificed by CO2 inhalation, the ears are removed, and 7 mm circular punch biopsies of are taken from each ear and weighed. The difference in biopsy weight between treated and untreated ears is determined, and the degree of anti-inflammatory activity is expressed in terms of the percent inhibition of ear weight increase relative to the control group. In multiple-dose experiments, varying amounts of the compound to be tested are applied along with the TPA and the results are expressed as the ED50, the dose at which a 50% inhibition of weight gain is observed.

Test [2] has as its target T1, human platelet phospholipase A2 (Homo sapiens, UniProt P14555).
T1 construct: a preparation of human platelet phospholipase A2; from tissue; host or cells: human platelets
T1 sequence (P14555 21-144): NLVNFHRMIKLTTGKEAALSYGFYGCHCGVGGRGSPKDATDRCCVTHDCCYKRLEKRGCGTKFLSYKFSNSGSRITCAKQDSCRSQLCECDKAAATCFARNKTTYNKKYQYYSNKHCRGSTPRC
The test can be described thus: Inhibition of human platelet phospholipase A2 (14C-oleate E. coli substrate). In kind it is biochemical. The note with it: for IC50: pH 7.0, 37°, 60 min incubation, read-out: Inhibition of PLA2, IC50; for inhibition at 50 µM: read-out: Inhibition of PLA2, % Inhibition @ 50 μM; for inhibition at 10 µM: @ 10 μM (values marked *), read-out: Inhibition of PLA2, % Inhibition @ *10 μM. As to the method:
The activity of the compounds of the invention against phospholipase A2 is determined using a preparation of human platelet phospholipase A2 with a specific activity of 180 nmol/min/mg as the enzyme source. Polypropylene 15-ml test tubes are utilized as the reaction vessels. All drug samples are run in duplicate, with "blank" and "control" (no test compound) groups run in triplicate. […] Test compounds are dissolved in DMSO, and diluted to a projected final concentration of either 50 or 10 μM in 550 μl HEPES buffer at pH 7.0. A 1:7 dilution of human platelet PLA2 in HEPES buffer (5 μl) is added to each test tube, followed by gentle vortexing for 3 seconds. The reaction tubes containing drug, buffer, and enzyme are preincubated for 15 min at 37°, followed by the addition of 25 μl of ^14 C-oleate E. coli substrate. Details regarding this substrate may be found in a publication by S. Ghosh and R. Franson, Biochem. Cell. Biol., 70, 43 (1992), and references therein.
The tubes are immediately vortexed at moderate speed for 3 sec, followed by a 60 min incubation at 37° in a shaking water bath. The reaction is stopped by the addition of 3 ml of a 1:2 chloroform-methanol mixture. Additional water (1.5 ml) and chloroform (1.0 ml) are added, followed by vortexing. The lower phase is removed with a polypropylene transfer pipette, and transferred to a 13×100 mm polypropylene test tube. The organic solvent is evaporated with a stream of nitrogen, the residue is redissolved in 30 μl of a 9:1 chloroform-methanol mixture, and the solution is spotted on a channeled polyester-backed silica gel TLC plate, such as those available under the trade name PE SIL G available from Whatman Inc, Clifton, N.J.
The plate is developed with an 80:20:1 mixture of petroleum ether-diethyl ether-acetic acid. […] The plate is scored above the origin, cut along the score with scissors, and the reactant (origin) and product portions of each channel are put into separate scintillation vials. To each vial is added a scintillation cocktail (15 ml), preferably that sold under the trademark ECOLUME by ICN Biomedicals, Irvine Calif. The vials are shaken vigorously for 5 sec, and the radioactive ^14 C in each vial is measured with a scintillation counter, which provides the counts-per-minute (cpm) for each sample. The obtained cpm values are corrected for the "blank" values.
The percentage of phospholipid hydrolyzed is calculated by the formula:
Phospholipid converted=100×cpm products / (cpm products+cpm
The inhibition of phospholipase A2 by the test compounds is expressed as a percent inhibition relative to the control group:
% Inhibition=[…]

Broadly, the inhibition in vivo is the relative decrease from the control value, in per cent. As usually defined, the IC50 is the concentration needed to halve the response being measured. The inhibition is the percentage by which the read-out fell short of the control. The compound `O=C1C=C(c2ccc(/C=C/c3ccccc3)cc2)C(O)O1` (single isomer, unassigned) [Example 34, (E)-5-Hydroxy-4-(4-(2-phenylethenyl)phenyl)-2(5H)-furanone] showed an inhibition in vivo at 100 µg/ear in test [1] of 33%. Besides, in test [2], the IC50 amounted to 30 µM and the inhibition at 50 µM turned out to be 91%.
For the compound `CCCCCCCCOc1ccc(C2=CC(=O)OC2O)cc1` (centres unmarked) [Example 1, 5-Hydroxy-4-(4-octyloxyphenyl)-2(5H)furanone], in test [1], the inhibition in vivo at 100 µg/ear is 56% and the “Inhibition of ear edema, IC50” value was 300 µg. Further, in test [2], the IC50 was 14 µM and the inhibition at 50 µM worked out at 91%.
For the compound `O=C1C=C(c2ccc(OCCOc3ccc4ccccc4c3)cc2)C(O)O1` (centres unmarked) [Example 12, 5-Hydroxy-4-[4-(2-(2-naphthyloxy)ethoxy)phenyl]-2(5H)furanone], in test [1], the inhibition in vivo at 100 µg/ear was 45%. In addition, the inhibition at 50 µM in test [2] worked out at 47%.
On to `O=C1C=C(c2ccc(OCCCCCCOc3ccc4ccccc4c3)cc2)C(O)O1` (centres unmarked) [Example 13, 5-Hydroxy-4-[4-(6-(2-naphthyloxy)hexyloxy)phenyl]-2(5H)furanone], for which the inhibition in vivo at 100 µg/ear in test [1] was 0%. Besides, in test [2], the IC50 came to 22 µM and the inhibition at 50 µM is 73%.
In turn, `CC1=C(CCCC/C=C(\C)COc2ccc(C3=CC(=O)OC3O)cc2)C(C)(C)CCC1` (centres unmarked) [Example 14, (E)-5-Hydroxy-4-(4-(2-methyl-7-(2,6,6-trimethyl-1-cyclohexen-1-yl)-2-heptenyloxy)phenyl)-2(5H)-furanone] yielded an inhibition in vivo at 100 µg/ear in test [1] of 4%. In addition, the inhibition at 50 µM in test [2] came out at 87%.
`CC1=C(CC/C=C(\C)COc2ccc(C3=CC(=O)OC3O)cc2)C(C)(C)CCC1` (centres unmarked) [Example 15, (E)-5-Hydroxy-4-(4-(2-methyl-5-(2,6,6-trimethyl-1-cyclohexen-1-yl)-2-pentenyloxy)phenyl)-2(5H)-furanone] came in with an inhibition in vivo at 100 µg/ear in test [1] of 49%. For the same compound, the inhibition at 50 µM in test [2] is 94%.
Consider `CC1=C(C/C=C(\C)COc2ccc(C3=CC(=O)OC3O)cc2)C(C)(C)CCC1` (centres unmarked) [Example 16, (E)-5-Hydroxy-4-(4-(2-methyl-4-(2,6,6-trimethyl-1-cyclohexen-1-yl)-2-butenyloxy)phenyl)-2(5H)-furanone], for which, in test [1], the inhibition in vivo at 100 µg/ear was found to be 43% and the “Inhibition of ear edema, IC50” value was 106 µg. In test [2], the IC50 was 9 µM and the inhibition at 50 µM came to 100%.
For the compound `CC1=C(C/C=C(\C)COc2cccc(C3=CC(=O)OC3O)c2)C(C)(C)CCC1` (centres unmarked) [Example 17, (E)-5-Hydroxy-4-(3-(2-methyl-4-(2,6,6-trimethyl-1-cyclohexen-1-yl)-2-butenyloxy)phenyl)-2(5H)-furanone], in test [1], the inhibition in vivo at 100 µg/ear was 51% and the “Inhibition of ear edema, IC50” value stood at 87 µg. In addition, in test [2], the IC50 came to 8 µM and the inhibition at 50 µM was 100%.
`CC1=C(C/C=C(\C)CSc2ccc(C3=CC(=O)OC3O)cc2)C(C)(C)CCC1` (centres unmarked) [Example 18, (E)-5-Hydroxy-4-(4-(2-methyl-4-(2,6,6-trimethyl-1-cyclohexen-1-yl)-2-butenylthio)phenyl)-2(5H)-furanone]: in test [1], the inhibition in vivo at 100 µg/ear was 70% and the “Inhibition of ear edema, IC50” value worked out at 28 µg. In test [2], the inhibition at 50 µM was determined as 75%.
In the case of `CCCCCCCCSc1ccc(C2=CC(=O)OC2O)cc1` (centres unmarked) [Example 19, 5-Hydroxy-4-(4-(octylthio)phenyl)-2(5H)furanone], in test [1], the inhibition in vivo at 100 µg/ear is 20%. Further, in test [2], the IC50 was determined as 5 µM and the inhibition at 50 µM came out at 98%.
For `CC(C)=CCC/C(C)=C/CSc1ccc(C2=CC(=O)OC2O)cc1` (centres unmarked) [Example 23, (E)-5-Hydroxy-4-(4-(3,7-dimethyl-2,6-octadienyl)thio)phenyl-2(5H)furanone], the inhibition in vivo at 100 µg/ear in test [1] came out at 56%. Besides, in test [2], the IC50 worked out at 8 µM and the inhibition at 50 µM was determined as 78%.
In the case of `CC1=C(CCCCCCCOc2ccc(C3=CC(=O)OC3O)cc2)C(C)(C)CCC1` (centres unmarked) [Example 27, 5-Hydroxy-4-(4-(7-(2,6,6-trimethyl-1-cyclohexen-1-30 yl)heptyloxy)phenyl)-2(5H)-furanone], the inhibition in vivo at 100 µg/ear in test [1] is 35%. Besides, in test [2], the IC50 was 1.4 µM and the inhibition at 50 µM was 67%.
`C=CCCCCCCCCC(=O)c1ccc(C2=CC(=O)OC2O)cc1` (centres unmarked) [Example 28, 5-Hydroxy-4-(4-(1-oxoundec-10-en-1-yl)phenyl)-2(5H)-furanone] displayed an inhibition in vivo at 100 µg/ear in test [1] of 0%. In test [2], the IC50 was 9 µM and the inhibition at 50 µM came to 86%.
`O=C1C=C(c2ccc(C(=O)/C=C/c3ccc4ccccc4c3)cc2)C(O)O1` (centres unmarked) [Example 30, (E)-5-Hydroxy-4-(4-(3-(2-naphthyl)-1-oxo-2-propenyl)phenyl)-2(5H)-furanone]: in test [1], the inhibition in vivo at 100 µg/ear amounted to 66% and the “Inhibition of ear edema, IC50” value stood at 80 µg. Further, in test [2], the IC50 is 7 µM and the inhibition at 50 µM amounted to 92%.
Consider `CCCCCC/C=C/c1ccc(C2=CC(=O)OC2O)cc1` (centres unmarked) [Example 35, (E)-5-Hydroxy-4-(4-(1-octenyl)phenyl)-2(5H)-furanone], for which the inhibition in vivo at 100 µg/ear in test [1] worked out at 30%. Moreover, in test [2], the IC50 was found to be 5 µM and the inhibition at 50 µM came out at 100%.
For the compound `O=C1C=C(c2ccc(/C=C/CCc3ccccc3)cc2)C(O)O1` (centres unmarked) [Example 36, (E)-5-Hydroxy-4-(4-(4-phenyl-1-butenyl)phenyl)-2(5H)-furanone], in test [1], the inhibition in vivo at 100 µg/ear came to 37%. Besides, in test [2], the IC50 was found to be 24 µM and the inhibition at 50 µM came out at 84%.
For `C=CC(CCCCC)Oc1ccc(C2=CC(=O)OC2O)cc1` (centres unmarked) [Example 37, 5-Hydroxy-4-(4-((1-ethenylhexyl)oxy)phenyl)-2(5H)-furanone], in that order: 34%, 20 µM and 93%.
For the compound `CCCCCCCCCCCCCOc1ccc(SC2=CC(=O)OC2O)cc1` (centres unmarked) [Example 65, 5-Hydroxy-4-(4-(tridecyloxy)phenylthio)-2(5H)-furanone], the inhibition at 10 µM in test [2] was determined as 98%.
In the case of `CCCCCOc1ccc(SC2=CC(=O)OC2O)cc1` (centres unmarked) [Example 66, 5-Hydroxy-4-(4-(pentyloxy)phenylthio)-2(5H)-furanone], the inhibition at 10 µM in test [2] turned out to be 48%.
For the compound `CC1=C(C/C=C(\C)COc2ccc(SC3=CC(=O)OC3O)cc2)C(C)(C)CCC1` (centres unmarked) [Example 67, (E)-5-Hydroxy-4-(4-(2-methyl-4-(2,6,6-trimethyl-1-cyclohexen-1-yl)-2-butenyloxy)phenylthio)-2(5H)-furanone], in test [2], the IC50 came out at 0.5 µM and the inhibition at 50 µM amounted to 98%.
For the compound `O=C1C=C(Sc2ccc(Br)cc2)C(O)O1` (centres unmarked) [Example 68, 5-Hydroxy-4-((4-bromophenyl)thio)-2(5H)-furanone], the inhibition at 50 µM in test [2] was found to be 0%.
Consider `CCCCCCCCOc1ccc(C2=CC(=O)OC2O)cn1` (centres unmarked) [Example 69, 5-Hydroxy-4-(6-octyloxy-3-pyridyl)-2(5H)-furanone], for which the inhibition at 50 µM in test [2] was 52%.
Still for that read-out and setting: the value for `CCCCCCCCSc1nc(C2=CC(=O)OC2O)cs1` (centres unmarked) [Example 70, 5-Hydroxy-4-(2-(octylthio)-4-thiazolyl)-2(5H)-furanone] was 70%.

The values above are taken from US5464865A, “4-aryl- and 4-arylthio-5-hydroxy-2(5H)-furanones as inhibitors of phospholipase A2” (Ortho Pharmaceutical Corporation, priority 1993, dated 1995).
